Reference: ChEMBL document CHEMBL3621068, “Synthesis and biological evaluation of a new class of quinazolinoneazoles as potential antimicrobial agents and their interactions with calf thymus DNA and human serum albumin” (Medchemcomm, 2015)
Converted amounts (≈) assume the structure as drawn. The source made the active and inactive calls. No cut-off for these calls is given here.

Experiments:
Staphylococcus aureus [1] = assay: Antibacterial activity against Staphylococcus aureus ATCC 25923 after 24 hrs by micro broth dilution assay; assay type: functional; details: ATCC 25923, 24 h
Saccharomyces cerevisiae = assay: Antifungal activity against Beer yeast ATCC 9763 after 24 hrs by micro broth dilution assay; assay type: functional; details: ATCC 9763, 24 h
Candida = assay: Antifungal activity against Candida mycoderma ATCC 9888 after 24 hrs by micro broth dilution assay; assay type: functional; details: ATCC 9888, 24 h
Aspergillus flavus [2] = assay: Antifungal activity against Aspergillus flavus ATCC 204304 after 24 hrs by micro broth dilution assay; assay type: functional; details: ATCC 204304, 24 h
[3] = Antibacterial activity against Eberthella typhosa ATCC 14028 after 24 hrs by micro broth dilution assay; assay type: functional; details: ATCC 14028, 24 h
Staphylococcus aureus [4] = assay: Antibacterial activity against methicillin-resistant Staphylococcus aureus N315 after 24 hrs by micro broth dilution assay; assay type: functional; details: N315, 24 h
Bacillus sp. = assay: Antibacterial activity against Bacillus proteus ATCC 13315 after 24 hrs by micro broth dilution assay; assay type: functional; details: Bacillus sp. (in: firmicutes), ATCC 13315, 24 h
Bacillus spizizenii [5] = assay: Antibacterial activity against Bacillus subtilis ATCC 6633 after 24 hrs by micro broth dilution assay; assay type: functional; details: ATCC 6633, 24 h
Candida albicans = assay: Antifungal activity against Candida albicans ATCC 10231 after 24 hrs by micro broth dilution assay; assay type: functional; details: ATCC 10231, 24 h
Bacillus spizizenii [6] = assay: Ratio of chloromycin MIC to compound MIC for Bacillus subtilis ATCC 6633; assay type: functional
Escherichia coli = assay: Antibacterial activity against Escherichia coli DH52 after 24 hrs by micro broth dilution assay; assay type: functional; details: DH52, 24 h
Cyberlindnera jadinii = assay: Antifungal activity against Candida utilis ATCC 9950 after 24 hrs by micro broth dilution assay; assay type: functional; details: Williopsis jadinii, ATCC 9950, 24 h
Micrococcus luteus = assay: Antibacterial activity against Micrococcus luteus ATCC 4698 after 24 hrs by micro broth dilution assay; assay type: functional; details: ATCC 4698, 24 h
Pseudomonas aeruginosa = assay: Antibacterial activity against Pseudomonas aeruginosa ATCC 27853 a after 24 hrs by micro broth dilution assay; assay type: functional; details: ATCC 27853, 24 h
Aspergillus flavus [7] = assay: Ratio of fluconazole MIC to compound MIC for Aspergillus flavus ATCC 204304; assay type: functional
Calf thymus DNA [8] = assay: Competitive binding affinity to calf thymus DNA using neutral red up to 2.0 x 10^-5 mol/L by UV-visible absorption spectroscopy; assay type: nucleic-acid assay; details: Bos taurus
Calf thymus DNA [9] = assay: Binding affinity to calf thymus DNA by UV-visible absorption spectroscopy; assay type: nucleic-acid assay; details: Bos taurus
Albumin = Albumin (Homo sapiens, UniProt P02768); assay: Binding affinity to human serum albumin assessed as fluorescence quenching at 10^-5 mol/L by fluorescence spectroscopy analysis; assay type: ADME; details: isolated protein, 10 µM
Sequence of Albumin (P02768 whole entry): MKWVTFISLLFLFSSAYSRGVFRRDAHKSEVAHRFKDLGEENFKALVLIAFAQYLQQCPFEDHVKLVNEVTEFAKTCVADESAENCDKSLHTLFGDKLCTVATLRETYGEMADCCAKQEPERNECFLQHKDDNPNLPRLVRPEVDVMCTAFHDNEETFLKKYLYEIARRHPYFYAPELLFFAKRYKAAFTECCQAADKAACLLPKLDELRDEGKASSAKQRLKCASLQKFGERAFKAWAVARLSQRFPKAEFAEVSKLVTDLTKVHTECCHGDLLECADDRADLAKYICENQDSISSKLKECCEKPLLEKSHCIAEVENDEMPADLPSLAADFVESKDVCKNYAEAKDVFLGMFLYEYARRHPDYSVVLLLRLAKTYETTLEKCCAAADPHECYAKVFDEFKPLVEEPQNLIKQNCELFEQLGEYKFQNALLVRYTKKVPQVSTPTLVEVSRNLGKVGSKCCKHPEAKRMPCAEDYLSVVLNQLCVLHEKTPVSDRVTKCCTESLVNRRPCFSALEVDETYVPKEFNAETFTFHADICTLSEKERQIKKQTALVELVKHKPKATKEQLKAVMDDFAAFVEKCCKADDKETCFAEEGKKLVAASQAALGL

SMILES	MIC (Staphylococcus aureus [1])	MIC (Saccharomyces cerevisiae)	MIC (Candida)	MIC (Aspergillus flavus [2])	MIC [3]	MIC (Staphylococcus aureus [4])	MIC (Bacillus sp.)	MIC (Bacillus spizizenii [5])	MIC (Candida albicans)	Ratio (Bacillus spizizenii [6])	MIC (Escherichia coli)	MIC (Cyberlindnera jadinii)	MIC (Micrococcus luteus)	MIC (Pseudomonas aeruginosa)	Ratio (Aspergillus flavus [7])	Activity (Calf thymus DNA [8])	K (Calf thymus DNA [9])	Kq (Albumin)
O=c1c2ccc(F)cc2ncn1CCCCCCCCCCn1cnc([N+](=O)[O-])c1	310 µM (≈ 129 µg/mL)	80 µM (≈ 33.2 µg/mL)	40 µM (≈ 16.6 µg/mL)	150 µM (≈ 62.3 µg/mL)	310 µM (≈ 129 µg/mL)	150 µM (≈ 62.3 µg/mL)	80 µM (≈ 33.2 µg/mL)	20 µM (≈ 8.31 µg/mL)	40 µM (≈ 16.6 µg/mL)	5	150 µM (≈ 62.3 µg/mL)	150 µM (≈ 62.3 µg/mL)	40 µM (≈ 16.6 µg/mL)	80 µM (≈ 33.2 µg/mL)				
O=c1c2ccc(F)cc2ncn1CCCCCn1cnc([N+](=O)[O-])c1	190 µM (≈ 65.6 µg/mL)	90 µM (≈ 31.1 µg/mL)	190 µM (≈ 65.6 µg/mL)	740 µM (≈ 256 µg/mL)	370 µM (≈ 128 µg/mL)	190 µM (≈ 65.6 µg/mL)	370 µM (≈ 128 µg/mL)	20 µM (≈ 6.91 µg/mL)	90 µM (≈ 31.1 µg/mL)	5	370 µM (≈ 128 µg/mL)	370 µM (≈ 128 µg/mL)	50 µM (≈ 17.3 µg/mL)	370 µM (≈ 128 µg/mL)				
O=c1c2ccc(F)cc2ncn1CCCCCCn1cnc([N+](=O)[O-])c1	360 µM (≈ 129 µg/mL)	90 µM (≈ 32.3 µg/mL)	40 µM (≈ 14.4 µg/mL)	180 µM (≈ 64.7 µg/mL)	360 µM (≈ 129 µg/mL)	180 µM (≈ 64.7 µg/mL)	90 µM (≈ 32.3 µg/mL)	20 µM (≈ 7.19 µg/mL)	40 µM (≈ 14.4 µg/mL)	5	180 µM (≈ 64.7 µg/mL)	360 µM (≈ 129 µg/mL)	40 µM (≈ 14.4 µg/mL)	360 µM (≈ 129 µg/mL)				
O=c1c2ccc(Cl)cc2ncn1CCCCCCCCCCn1cnc([N+](=O)[O-])c1	300 µM (≈ 130 µg/mL)	70 µM (≈ 30.2 µg/mL)	40 µM (≈ 17.3 µg/mL)	150 µM (≈ 64.8 µg/mL)	300 µM (≈ 130 µg/mL)	150 µM (≈ 64.8 µg/mL)	70 µM (≈ 30.2 µg/mL)	40 µM (≈ 17.3 µg/mL)	40 µM (≈ 17.3 µg/mL)		150 µM (≈ 64.8 µg/mL)	150 µM (≈ 64.8 µg/mL)	40 µM (≈ 17.3 µg/mL)	70 µM (≈ 30.2 µg/mL)				
O=c1c2ccc(F)cc2ncn1CCBr	> 1890 µM	940 µM (≈ 255 µg/mL)	> 1890 µM	1890 µM (≈ 512 µg/mL)	> 1890 µM	940 µM (≈ 255 µg/mL)	470 µM (≈ 127 µg/mL)	1890 µM (≈ 512 µg/mL)	940 µM (≈ 255 µg/mL)		1890 µM (≈ 512 µg/mL)	940 µM (≈ 255 µg/mL)	470 µM (≈ 127 µg/mL)	> 1890 µM				
O=c1c2ccc(Cl)cc2ncn1CCCCCCBr	> 1490 µM	740 µM (≈ 254 µg/mL)	> 1490 µM	> 1490 µM	> 1490 µM	740 µM (≈ 254 µg/mL)	740 µM (≈ 254 µg/mL)	1490 µM (≈ 512 µg/mL)	> 1490 µM		1490 µM (≈ 512 µg/mL)	740 µM (≈ 254 µg/mL)	370 µM (≈ 127 µg/mL)	> 1490 µM				
OC(Cn1cncn1)(Cn1cncn1)c1ccc(F)cc1F [FLUCONAZOLE]	> 1670 µM	50 µM (≈ 15.3 µg/mL)	10 µM (≈ 3.06 µg/mL)	840 µM (≈ 257 µg/mL)	> 1670 µM	> 1670 µM	> 1670 µM	> 1670 µM	< 10 µM		> 1670 µM	30 µM (≈ 9.19 µg/mL)	> 1670 µM	> 1670 µM				
Cc1ncc([N+](=O)[O-])n1CCCCCCn1cnc2cc(F)ccc2c1=O	40 µM (≈ 14.9 µg/mL)	40 µM (≈ 14.9 µg/mL)	20 µM (≈ 7.47 µg/mL)	10 µM (≈ 3.73 µg/mL)	20 µM (≈ 7.47 µg/mL)	40 µM (≈ 14.9 µg/mL)	40 µM (≈ 14.9 µg/mL)	20 µM (≈ 7.47 µg/mL)	20 µM (≈ 7.47 µg/mL)		40 µM (≈ 14.9 µg/mL)	20 µM (≈ 7.47 µg/mL)	40 µM (≈ 14.9 µg/mL)	> 1370 µM	84			
O=c1c2ccc(F)cc2ncn1CCCCCBr	> 1630 µM	820 µM (≈ 257 µg/mL)	> 1630 µM	820 µM (≈ 257 µg/mL)	> 1630 µM	820 µM (≈ 257 µg/mL)	410 µM (≈ 128 µg/mL)	1630 µM (≈ 510 µg/mL)	820 µM (≈ 257 µg/mL)		1630 µM (≈ 510 µg/mL)	410 µM (≈ 128 µg/mL)	410 µM (≈ 128 µg/mL)	> 1630 µM				
O=c1c2ccc(Cl)cc2ncn1CCCCCCn1cnc([N+](=O)[O-])c1	340 µM (≈ 128 µg/mL)	90 µM (≈ 33.8 µg/mL)	40 µM (≈ 15 µg/mL)	170 µM (≈ 63.9 µg/mL)	340 µM (≈ 128 µg/mL)	170 µM (≈ 63.9 µg/mL)	90 µM (≈ 33.8 µg/mL)	40 µM (≈ 15 µg/mL)	40 µM (≈ 15 µg/mL)		170 µM (≈ 63.9 µg/mL)	340 µM (≈ 128 µg/mL)	40 µM (≈ 15 µg/mL)	340 µM (≈ 128 µg/mL)				
Cc1ncc([N+](=O)[O-])n1CCn1cnc2cc(F)ccc2c1=O	30 µM (≈ 9.52 µg/mL)	30 µM (≈ 9.52 µg/mL)	30 µM (≈ 9.52 µg/mL)	30 µM (≈ 9.52 µg/mL)	30 µM (≈ 9.52 µg/mL)	30 µM (≈ 9.52 µg/mL)	50 µM (≈ 15.9 µg/mL)	30 µM (≈ 9.52 µg/mL)	30 µM (≈ 9.52 µg/mL)		30 µM (≈ 9.52 µg/mL)	30 µM (≈ 9.52 µg/mL)	50 µM (≈ 15.9 µg/mL)	> 1610 µM		Active	1.41 ×10⁴ L/mol	0.1 ×10¹² L/mol/s
O=c1c2ccc(F)cc2ncn1CCCCBr	> 1710 µM	860 µM (≈ 257 µg/mL)	> 1710 µM	1710 µM (≈ 512 µg/mL)	> 1710 µM	430 µM (≈ 129 µg/mL)	860 µM (≈ 257 µg/mL)	1710 µM (≈ 512 µg/mL)	860 µM (≈ 257 µg/mL)		1710 µM (≈ 512 µg/mL)	430 µM (≈ 129 µg/mL)	860 µM (≈ 257 µg/mL)	> 1710 µM				
Cc1ncc([N+](=O)[O-])n1CCCCCCCCCCn1cnc2cc(F)ccc2c1=O	20 µM (≈ 8.59 µg/mL)	20 µM (≈ 8.59 µg/mL)	20 µM (≈ 8.59 µg/mL)	40 µM (≈ 17.2 µg/mL)	20 µM (≈ 8.59 µg/mL)	20 µM (≈ 8.59 µg/mL)	20 µM (≈ 8.59 µg/mL)	20 µM (≈ 8.59 µg/mL)	40 µM (≈ 17.2 µg/mL)		20 µM (≈ 8.59 µg/mL)	20 µM (≈ 8.59 µg/mL)	40 µM (≈ 17.2 µg/mL)	> 1190 µM				
O=c1c2ccc(Cl)cc2ncn1CCn1cnc([N+](=O)[O-])c1	800 µM (≈ 256 µg/mL)	200 µM (≈ 63.9 µg/mL)	800 µM (≈ 256 µg/mL)	> 1600 µM	400 µM (≈ 128 µg/mL)	200 µM (≈ 63.9 µg/mL)	400 µM (≈ 128 µg/mL)	50 µM (≈ 16 µg/mL)	100 µM (≈ 32 µg/mL)		800 µM (≈ 256 µg/mL)	400 µM (≈ 128 µg/mL)	50 µM (≈ 16 µg/mL)	> 1600 µM				
O=c1c2ccc(Cl)cc2ncn1CCCCCCCCCCBr	> 1280 µM	640 µM (≈ 256 µg/mL)	> 1280 µM	> 1280 µM	> 1280 µM	640 µM (≈ 256 µg/mL)	320 µM (≈ 128 µg/mL)	1280 µM (≈ 512 µg/mL)	> 1280 µM		640 µM (≈ 256 µg/mL)	320 µM (≈ 128 µg/mL)	320 µM (≈ 128 µg/mL)	> 1280 µM				
Cc1ncc([N+](=O)[O-])n1CCCCn1cnc2cc(F)ccc2c1=O	50 µM (≈ 17.3 µg/mL)	50 µM (≈ 17.3 µg/mL)	50 µM (≈ 17.3 µg/mL)	20 µM (≈ 6.91 µg/mL)	20 µM (≈ 6.91 µg/mL)	20 µM (≈ 6.91 µg/mL)	20 µM (≈ 6.91 µg/mL)	50 µM (≈ 17.3 µg/mL)	20 µM (≈ 6.91 µg/mL)		50 µM (≈ 17.3 µg/mL)	50 µM (≈ 17.3 µg/mL)	50 µM (≈ 17.3 µg/mL)	> 1480 µM				
O=c1c2ccc(Cl)cc2ncn1CCCCCBr	> 1550 µM	780 µM (≈ 257 µg/mL)	> 1550 µM	> 1550 µM	> 1550 µM	780 µM (≈ 257 µg/mL)	390 µM (≈ 129 µg/mL)	1550 µM (≈ 511 µg/mL)	> 1550 µM		1550 µM (≈ 511 µg/mL)	390 µM (≈ 129 µg/mL)	390 µM (≈ 129 µg/mL)	> 1550 µM				
